≈ marks a conversion by molar mass, not a printed value.
What was measured:
[1] = test system: Mycobacterium tuberculosis; assay: Antibacterial activity against Mycobacterium tuberculosis H37Rv ATCC 27294 strain assessed as bacterial growth inhibition by MABA Assay; format: functional
MIA PaCa-2 = assay: Anticancer activity against human MIA PaCa-2 cells assessed as cell growth inhibition incubated for 48 hrs by SRB assay; format: functional, cell-based; settings: MIA PaCa-2, 48 h
HeLa [2] = assay: Anticancer activity against human HeLa cells assessed as cell growth inhibition incubated for 48 hrs by SRB assay; format: functional, cell-based
[3] = test system: Mycobacterium tuberculosis; assay: Antibacterial activity against Mycobacterium tuberculosis H37Rv strain assessed as bacterial growth inhibition by MABA Assay; format: functional, organism-based
Escherichia coli [4] = assay: Antibacterial activity against Escherichia coli assessed as bacterial growth inhibition; format: functional
Pseudomonas aeruginosa [5] = assay: Antibacterial activity against Pseudomonas aeruginosa assessed as bacterial growth inhibition; format: functional
Bacillus subtilis [6] = assay: Antibacterial activity against Bacillus subtilis assessed as bacterial growth inhibition; format: functional
Candida albicans = assay: Antifungal activity against Candida albicans assessed as […] growth inhibition; format: functional
[7] = test system: Staphylococcus epidermidis; assay: Antibacterial activity against Staphylococcus epidermidis assessed as bacterial growth inhibition; format: functional
Aspergillus niger = assay: Antifungal activity against Aspergillus niger assessed as […] growth inhibition; format: functional
Pseudomonas aeruginosa [8] = assay: Antibacterial activity against Pseudomonas aeruginosa ATCC 27853 strain assessed as bacterial growth inhibition incubated for 24 hrs; format: functional
Plasmodium falciparum [9] = assay: Antimalarial activity against Plasmodium falciparum 3D7 strain by MSF assay; format: functional, organism-based
HeLa [10] = assay: Anticancer activity against human HeLa cells assessed as cell growth inhibition incubated for 48 hrs by MTT assay; format: functional, cell-based
MCF7 [11] = assay: Anticancer activity against human MCF7 cells assessed as cell growth inhibition incubated for 48 hrs by MTT assay; format: functional, cell-based; settings: MCF7, 48 h
DU-145 = assay: Anticancer activity against human DU-145 cells assessed as cell growth inhibition by MTT assay; format: functional, cell-based
Staphylococcus aureus [12] = assay: Antibacterial activity against Staphylococcus aureus assessed as bacterial growth inhibition incubated for 12 hrs by well plate assay; format: functional
[13] = test system: Staphylococcus epidermidis; assay: Antibacterial activity against Staphylococcus epidermidis assessed as bacterial growth inhibition incubated for 12 hrs by well plate assay; format: functional
Pseudomonas aeruginosa [14] = assay: Antibacterial activity against Pseudomonas aeruginosa assessed as bacterial growth inhibition incubated for 12 hrs by well plate assay; format: functional
Klebsiella pneumoniae = assay: Antibacterial activity against Klebsiella pneumoniae assessed as bacterial growth inhibition incubated for 12 hrs by well plate assay; format: functional
HT-29 = assay: Anticancer activity against human HT-29 cells assessed as cell growth inhibition incubated for 48 hrs by SRB assay; format: functional, cell-based; settings: HT-29, 48 h
A549 = assay: Anticancer activity against human A549 cells assessed as cell growth inhibition incubated for 48 hrs by SRB assay; format: functional, cell-based; settings: A549, 48 h
MCF7 [15] = assay: Anticancer activity against human MCF7 cells assessed as cell growth inhibition incubated for 48 hrs by SRB assay; format: functional, cell-based; settings: MCF7, 48 h
HCT-116 = assay: Anticancer activity against human HCT-116 cells assessed as cell growth inhibition incubated for 48 hrs by SRB assay; format: functional, cell-based; settings: HCT-116, 48 h
Staphylococcus aureus [16] = assay: Antibacterial activity against Staphylococcus aureus assessed as bacterial growth inhibition incubated for 24 hrs by agar well diffusion assay; format: functional
[17] = test system: Mycobacterium tuberculosis; assay: Antibacterial activity against Mycobacterium tuberculosis H37Rv strain assessed as bacterial growth inhibition incubated for 7 days by Resazurin Microtiter Assay; format: functional; settings: 168 h, time 7 day
Bacillus subtilis [18] = assay: Antibacterial activity against Bacillus subtilis assessed as bacterial growth inhibition incubated for 24 hrs by agar well diffusion assay; format: functional
Escherichia coli [19] = assay: Antibacterial activity against Escherichia coli assessed as bacterial growth inhibition incubated for 24 hrs by agar well diffusion assay; format: functional
MCF7 [20] = assay: Anticancer activity against human MCF7 cells assessed as cell growth inhibition by MTT assay; format: functional, cell-based
Escherichia coli [21] = assay: Antibacterial activity against Escherichia coli ATCC 11229 assessed as bacterial growth inhibition by agar well diffusion assay; format: functional
Staphylococcus aureus [22] = assay: Antibacterial activity against Staphylococcus aureus ATCC 6538 assessed as bacterial growth inhibition by agar well diffusion assay; format: functional
Listeria = assay: Antibacterial activity against Listeria assessed as bacterial growth inhibition by agar well diffusion assay; format: functional
HEK293 = assay: Anticancer activity against human HEK293 cells assessed as cell growth inhibition by MTT assay; format: functional
MDA-MB-231 = assay: Anticancer activity against human MDA-MB-231 cells assessed as cell growth inhibition by MTT assay; format: functional, cell-based
Plasmodium falciparum [23] = assay: Antimalarial activity against Plasmodium falciparum 3D7 strain incubated for 40 hrs by Giemsa staining based microscopic analysis; format: functional, organism-based; settings: 3D7, 40 h
Plasmodium falciparum [24] = assay: Antimalarial activity against Plasmodium falciparum RKL-2 strain incubated for 40 hrs by Giemsa staining based microscopic analysis; format: functional, organism-based; settings: RKL-2, 40 h
[25] = Pseudomonas aeruginosa, read-out: MIC

With COc1ccc2nc(Cl)c(C(=O)NCc3cn(Cc4ccc(C#N)cc4)nn3)cc2c1 the MIC [1] was 1.6 µg/mL (≈ 3.7 µM).
In the case of COc1ccc2cccc(-c3cn(CCCOC(=O)C4=C(Cl)c5cc(C)c(C)cc5CCC4)nn3)c2c1, the IC50 (MIA PaCa-2) is reported as < 10 nM and the IC50 (HeLa [2]) is reported as 1610 nM.
Work on O=c1c(Cn2cc(CCCCCCCCCCCCCCCO)nn2)coc2ccccc12 yielded an IC50 [3] of 1.56 µg/mL (≈ 3.44 µM).
For O=C(Cn1cc(-c2cccc(F)c2)nn1)Nc1ccc(F)cc1, the MIC (Escherichia coli [4]) was 0.0199 umol/cm3, the MIC (Pseudomonas aeruginosa [5]) was 0.0199 umol/cm3 and the MIC (Bacillus subtilis [6]) was 0.0199 umol/cm3. The MIC (Candida albicans) was 0.0199 umol/cm3, the MIC [7] was 0.0199 umol/cm3 and the MIC (Aspergillus niger) was 0.0199 umol/cm3.
CCOP(=O)(CCCCn1cc(Cn2cnc3ccccc3c2=O)nn1)OCC was tested, and the MIC (Pseudomonas aeruginosa [8]) was 0.625 µg/mL (≈ 1.49 µM).
For NC(=O)N/N=C/c1ccccc1OCc1cn(-c2ccc(Br)cc2)nn1, the MIC (Pseudomonas aeruginosa [5]; [25]) was 60.2 µM (≈ 25 µg/mL).
With O=C(CCl)NCCNc1ccnc2cc(Cl)ccc12 the IC50 (Plasmodium falciparum [9]) was 38.8 nM.
Cc1ccc(Cn2cc(CN3C(=O)C4(C(C#N)=C(N)Oc5cc6c(cc54)[nH]c4ccccc46)c4cc(F)ccc43)nn2)cc1 (stereo unspecified) gave an IC50 (HeLa [10]) of 3.35 µM.
Compound N#CC1=C(N)Oc2cc3c(cc2C12C(=O)N(Cc1cn(Cc4ccc([N+](=O)[O-])cc4)nn1)c1ccccc12)[nH]c1ccccc13 (stereo unspecified) has an IC50 (MCF7 [11]) of 2130 nM.
For COc1cc([C@H]2c3cc4c(cc3[C@H](OCc3cn([C@@H]5O[C@H](COC(C)=O)[C@@H](OC(C)=O)[C@H](OC(C)=O)[C@H]5OC(C)=O)nn3)[C@@H]3COC(=O)[C@@H]23)OCO4)cc(OC)c1OC, the IC50 (DU-145) was 1020 nM.
For O=C(Cn1cc(-c2ccccc2)nn1)Nc1ccc(F)cc1, the MIC (Escherichia coli [4]) was 0.201 umol/cm3, the MIC (Pseudomonas aeruginosa [5]) was 0.201 umol/cm3 and the MIC (Bacillus subtilis [6]) was 0.201 umol/cm3. The MIC (Candida albicans) was 0.201 umol/cm3, the MIC [7] was 0.201 umol/cm3 and the MIC (Aspergillus niger) was 0.201 umol/cm3.
COc1ccccc1/N=C/c1c(OCc2cn(CCC[Si]34OCCN(CCO3)CCO4)nn2)ccc2ccccc12 showed an MIC (Staphylococcus aureus [12]) of 26.5 µg/mL (≈ 46.2 µM), an MIC [13] of 26.5 µg/mL (≈ 46.2 µM) and an MIC (Pseudomonas aeruginosa [14]) of 106 µg/mL (≈ 185 µM). The MIC (Klebsiella pneumoniae) was 106 µg/mL (≈ 185 µM).
Cc1ccc(-c2nn(-c3ccccc3)cc2/C=C/C(=O)OCc2cn(-c3ccc([N+](=O)[O-])cc3)nn2)cc1 was tested, and the IC50 (HT-29) was 4.49 µM, the IC50 (A549) was 1960 nM and the IC50 (MCF7 [15]) was 1760 nM. It also gave an IC50 (HCT-116) of 3.59 µM.
Cc1cc(=O)oc2cc(OCc3cn(CCCCCCn4cc(COc5cc6oc(=O)cc(C)c6cc5Cl)nn4)nn3)c(Cl)cc12 was tested, and the “inhibition zone (IZ)” value (Staphylococcus aureus [16]) was 16 mm, the MIC [17] was 1.56 µg/mL (≈ 2.34 µM) and the “inhibition zone (IZ)” value (Bacillus subtilis [18]) was 19 mm. The “inhibition zone (IZ)” value (Escherichia coli [19]) was 14 mm.
Compound COc1cc([C@H]2c3cc4c(cc3[C@H](OCc3cn([C@@H]5O[C@H](COC(C)=O)[C@H](OC(C)=O)[C@H](OC(C)=O)[C@H]5OC(C)=O)nn3)[C@@H]3COC(=O)[C@@H]23)OCO4)cc(OC)c1OC has an IC50 (MCF7 [20]) of 1.25 µM.
Cc1cc(O)c(C(=O)/C=C/c2ccc(OCc3cn(Cc4ccc(Br)cc4)nn3)cc2)c(=O)o1 gave an MIC (Escherichia coli [4]; Escherichia coli, read-out: MIC) of 3 µM (≈ 1.57 µg/mL), an MIC (Pseudomonas aeruginosa [5]; [25]) of 3 µM (≈ 1.57 µg/mL) and an MIC (Bacillus subtilis [6]; Bacillus subtilis, read-out: MIC) of 3 µM (≈ 1.57 µg/mL). The MIC (Candida albicans; Candida albicans, read-out: MIC) was 3 µM (≈ 1.57 µg/mL), the MIC ([7]; Staphylococcus epidermidis, read-out: MIC) was 3 µM (≈ 1.57 µg/mL) and the MIC (Aspergillus niger; Aspergillus niger, read-out: MIC) was 3 µM (≈ 1.57 µg/mL).
NC(=O)N/N=C/c1ccc(OCc2cn(-c3ccc(F)cc3)nn2)cc1 showed an MIC (Pseudomonas aeruginosa [5]; [25]) of 35.3 µM (≈ 12.5 µg/mL).
COc1ccc(Cn2cc(CNC(=O)c3cc4cc(OC)ccc4nc3Cl)nn2)cc1 was tested, and the MIC [1] was 1.6 µg/mL (≈ 3.65 µM).
CC(C)c1ccc(-c2cc(-c3ccc(Cl)cc3)nc(OCc3cn(CC(=O)O)nn3)c2C#N)cc1 was tested, and the MIC (Escherichia coli [21]) was 9.6 µg/mL (≈ 19.7 µM), the MIC (Staphylococcus aureus [22]) was 19.2 µg/mL (≈ 39.3 µM) and the MIC (Listeria) was 9.6 µg/mL (≈ 19.7 µM).
With O=C1C(=O)N(Cc2cn(CC/C(=C(\c3ccccc3)c3ccc(OCCO)cc3)c3ccccc3)nn2)c2c(Br)cc(Br)cc21 the IC50 (HEK293) was >100 µM, the IC50 (MDA-MB-231) was 19.2 µM and the IC50 (MCF7 [20]) was 31.6 µM.
With C#CCCO[C@@H]1O[C@@H]2O[C@]3(C)CC[C@H]4[C@H](C)CC[C@@H]([C@H]1C)[C@@]24OO3 the IC50 (Plasmodium falciparum [23]) was 0.215 µg/mL (≈ 0.639 µM) and the IC50 (Plasmodium falciparum [24]) was 8 µg/mL (≈ 23.8 µM).

— ChEMBL document CHEMBL5233261, “Recent accomplishments on the synthetic/biological facets of pharmacologically active 1H-1,2,3-triazoles” (Eur J Med Chem, 2021)
